Reference: patent US5763404A, “Methods for using LHRH antagonists with low histamine release” (priority 1995, dated 1998)
Starred links: 1 amine or outer side, 2 acyl side, 3 side chain; linkers in the order of their positions; H or OH if unused. Non-standard residues stand in square brackets, D forms with d. Residues, ends and D or L forms follow the SMILES beside them. *: point of attachment. dAla(cis-4-NHCOPyz-cHex) = N[C@H](C[C@H]1CC[C@@H](NC(=O)c2cnccn2)CC1)C(=O)O; X7 = O=C(N[C@H]1CC[C@H](C[C@@H](N[*:1])C(=O)[*:2])CC1)c1cccnc1; dPhe(3,4-Cl2) = N[C@H](Cc1ccc(Cl)c(Cl)c1)C(=O)O; X9 = CN=C(NCCC[C@H](N[*:1])C(=O)[*:2])N(C)C; dPhe(4-Cl) = N[C@H](Cc1ccc(Cl)cc1)C(=O)O; X10 = O=C([C@@H](Cc1cnccn1)N[*:1])[*:2]; d2Nal = N[C@H](Cc1ccc2ccccc2c1)C(=O)O; Nicotinoyl(6-Me) = Cc1ccc(C(=O)*)cn1; X11 = O=C([C@H](N[*:1])c1ccsc1)[*:2]; Lys(iPr) = CC(C)NCCCC[C@H](N)C(=O)O; Orn(iPr) = CC(C)NCCC[C@H](N)C(=O)O; Benzoyl(4-OH) = O=C(c1ccc(O)cc1)*; 3Pal = N[C@@H](Cc1cccnc1)C(=O)O; d3Pal = N[C@H](Cc1cccnc1)C(=O)O; Cit = NC(=O)NCCC[C@H](N)C(=O)O; NMeL = CN[C@@H](CC(C)C)C(=O)O; Nicotinoyl = O=C(c1cccnc1)*; Picolinoyl = O=C(c1ccccn1)*; Abu = CC[C@H](N)C(=O)O; Bz = O=C(c1ccccc1)*

System: anaesthesized rats
Assay: wheal test, intradermal injection
Assay type: in vivo, rat
Parameters: Wheal (wheal response): unit not given here
Conditions: for Wheal Area / Wheal: 10 ug peptide intradermally; for Wheal: Table I
Procedure: The antiovulatory activity, AOA, in rats was determined as described by Humphries et al. (12). Antiovulation assays were performed by counting, on estrus, the number of ova shed by 4-day cycling rats after a single sc injection of the LH-RH analogue in corn oil was administered between 12 and 12:30 p.m. on […]. The control rats received 0.3 mL of the vehicle. The wheal test was performed by intradermally injecting 10 ug of peptide in 100 ul of saline into anaesthesized rats, measuring the ideally circular wheal response and calculating the area. The in vitro histamine release test was done as described by Karten et al. (4). A suspension of rat mast cells was added to increasing concentrations of peptide and the mixture was incubated for a few minutes followed by centrifugation to collect the histamine in the supernatant. A PIPES (piperazine-N,N'-bis[2-ethanesulfonic acid]) medium buffered at pH 7.4 containing NaCl 119 mM, KCl 5 mM, PIPES 25 mM, NaOH 40 mM, glucose 5.6 mM, CaCl2 1 mM, and 0.1% bovine serum albumin was used. This was designated as PIPES AC. Peptides were dissolved in double distilled H2 O at a concentration of 2 mg/ml and stored at -20° C. They were thawed just prior to testing, diluted in PIPES AC and prewarmed for five minutes at 37° C. Peptides studied were stable to heating at 56° C. for two hours, and to freezing and thawing.

Compound | Wheal Area [mm^2 /10 μg] | Wheal [mm^2 /10] | Wheal (wheal response) (Table XIV and text, unit not given)
CC(=O)N[C@H](Cc1ccc2ccccc2c1)C(=O)N[C@H](Cc1ccc(Cl)cc1)C(=O)N[C@H](Cc1cccnc1)C(=O)N[C@@H](CO)C(=O)N[C@@H](Cc1ccc(O)cc1)C(=O)N[C@H](CCCCNC(=O)c1cccnc1)C(=O)N[C@@H](CC(C)C)C(=O)N[C@@H](CCCNC(=N)N)C(=O)N1CCC[C@H]1C(=O)N[C@H](C)C(N)=O [compound 22396] (Ac-[d2Nal][dPhe(4-Cl)][d3Pal]SY[dK](Nicotinoyl)LRP[dA]-NH2) |  | 85 | 
CC(=O)N[C@H](Cc1ccc2ccccc2c1)C(=O)N[C@H](Cc1ccc(Cl)cc1)C(=O)N[C@H](Cc1cccnc1)C(=O)N[C@@H](CO)C(=O)N[C@@H](Cc1cccnc1)C(=O)N[C@H](CCCCNC(=O)c1cccnc1)C(=O)N[C@@H](CC(C)C)C(=O)N[C@@H](CCCNC(C)C)C(=O)N1CCC[C@H]1C(=O)N[C@H](C)C(N)=O [compound 25384] (Ac-[d2Nal][dPhe(4-Cl)][d3Pal]S[3Pal][dK](Nicotinoyl)L[Orn(iPr)]P[dA]-NH2) |  | 139.9 | 
CC(=O)N[C@H](Cc1ccc2ccccc2c1)C(=O)N[C@H](Cc1ccc(Cl)cc1)C(=O)N[C@H](Cc1cccnc1)C(=O)N[C@@H](CO)C(=O)N[C@@H](CCCCNC(=O)c1cccnc1)C(=O)N[C@H](CCCCNC(=O)c1ccccc1)C(=O)N[C@@H](CC(C)C)C(=O)N[C@@H](CCCCNC(C)C)C(=O)N1CCC[C@H]1C(=O)N[C@H](C)C(N)=O [compound 25332] (Ac-[d2Nal][dPhe(4-Cl)][d3Pal]SK(Nicotinoyl)[dK](Bz)L[Lys(iPr)]P[dA]-NH2) |  | 119.6 | 
CC(=O)N[C@H](Cc1ccc2ccccc2c1)C(=O)N[C@H](Cc1ccc(Cl)cc1)C(=O)N[C@H](Cc1cccnc1)C(=O)N[C@@H](CO)C(=O)N[C@@H](CCCCNC(=O)c1cccnc1)C(=O)N[C@H](CCCCNC(=O)c1cccnc1)C(=O)N(C)[C@@H](CC(C)C)C(=O)N[C@@H](CCCCNC(C)C)C(=O)N1CCC[C@H]1C(=O)N[C@H](C)C(N)=O [compound 26345] (Ac-[d2Nal][dPhe(4-Cl)][d3Pal]SK(Nicotinoyl)[dK](Nicotinoyl)[NMeL][Lys(iPr)]P[dA]-NH2) | 110.5 ± 11.4 |  | 
CN=C(NCCC[C@H](NC(=O)[C@H](CO)NC(=O)[C@@H](Cc1cccnc1)NC(=O)[C@@H](Cc1ccc(Cl)cc1)NC(=O)[C@@H](Cc1ccc2ccccc2c1)NC(C)=O)C(=O)N[C@H](CCCCNC(=O)c1cccnc1)C(=O)N[C@@H](CC(C)C)C(=O)N[C@@H](CCCCNC(C)C)C(=O)N1CCC[C@H]1C(=O)N[C@H](C)C(N)=O)N(C)C [compound 24931] (Ac-[d2Nal][dPhe(4-Cl)][d3Pal]S[X9][dK](Nicotinoyl)L[Lys(iPr)]P[dA]-NH2) |  | 140 ± 7.0 | 
CC(=O)N[C@H](Cc1ccc2ccccc2c1)C(=O)N[C@H](Cc1ccc(Cl)cc1)C(=O)N[C@H](Cc1cccnc1)C(=O)N[C@@H](CO)C(=O)N[C@@H](CCCCNC(=O)c1cccnc1)C(=O)N[C@H](C[C@H]1CC[C@H](NC(=O)c2cccnc2)CC1)C(=O)N[C@@H](CC(C)C)C(=O)N[C@@H](CCCCNC(C)C)C(=O)N1CCC[C@H]1C(=O)N[C@H](C)C(N)=O [compound 25647] (Ac-[d2Nal][dPhe(4-Cl)][d3Pal]SK(Nicotinoyl)[X7]L[Lys(iPr)]P[dA]-NH2) |  | 119.5 ± 3.2 | 
CC(=O)N[C@H](Cc1ccc2ccccc2c1)C(=O)N[C@H](Cc1ccc(Cl)cc1)C(=O)N[C@@H](C(=O)N[C@@H](CO)C(=O)N[C@@H](CCCCNC(=O)c1ccccn1)C(=O)N[C@H](C[C@H]1CC[C@@H](NC(=O)c2cnccn2)CC1)C(=O)N[C@@H](CC(C)C)C(=O)N[C@@H](CCCCNC(C)C)C(=O)N1CCC[C@H]1C(=O)N[C@H](C)C(N)=O)c1ccsc1 [compound 26349] (Ac-[d2Nal][dPhe(4-Cl)][X11]SK(Picolinoyl)[dAla(cis-4-NHCOPyz-cHex)]L[Lys(iPr)]P[dA]-NH2) | 84.6 ± 3.9 |  | 
CC(=O)N[C@H](Cc1ccc2ccccc2c1)C(=O)N[C@H](Cc1ccc(Cl)cc1)C(=O)N[C@H](Cc1cccnc1)C(=O)N[C@@H](CO)C(=O)N[C@@H](CCCCNC(=O)c1ccc(C)nc1)C(=O)N[C@H](CCCCNC(=O)c1ccc(C)nc1)C(=O)N[C@@H](CC(C)C)C(=O)N[C@@H](CCCCNC(C)C)C(=O)N1CCC[C@H]1C(=O)N[C@H](C)C(N)=O [compound 25386] (Ac-[d2Nal][dPhe(4-Cl)][d3Pal]SK(Nicotinoyl(6-Me))[dK](Nicotinoyl(6-Me))L[Lys(iPr)]P[dA]-NH2) |  | 126.1 | 
CN=C(NCCC[C@H](NC(=O)[C@H](CC(C)C)NC(=O)[C@@H](CCCCNC(=O)c1cccnc1)NC(=O)[C@H](CCCCNC(=O)c1cccnc1)NC(=O)[C@H](CO)NC(=O)[C@@H](Cc1cccnc1)NC(=O)[C@@H](Cc1ccc(Cl)cc1)NC(=O)[C@@H](Cc1ccc2ccccc2c1)NC(C)=O)C(=O)N1CCC[C@H]1C(=O)N[C@H](C)C(N)=O)N(C)C [compound 24987] (Ac-[d2Nal][dPhe(4-Cl)][d3Pal]SK(Nicotinoyl)[dK](Nicotinoyl)L[X9]P[dA]-NH2) |  | 150.9 ± 14.0 | 
CC(=O)N[C@H](Cc1ccc(Cl)c(Cl)c1)C(=O)N[C@H](Cc1ccc(Cl)cc1)C(=O)N[C@H](Cc1cccnc1)C(=O)N[C@@H](CO)C(=O)N[C@@H](Cc1ccc(O)cc1)C(=O)N[C@H](CCCCNC(=O)c1cccnc1)C(=O)N[C@@H](CC(C)C)C(=O)N[C@@H](CCCCNC(C)C)C(=O)N1CCC[C@H]1C(=O)N[C@H](C)C(N)=O [compound 25338] (Ac-[dPhe(3,4-Cl2)][dPhe(4-Cl)][d3Pal]SY[dK](Nicotinoyl)L[Lys(iPr)]P[dA]-NH2) |  | 103.9 | 

The remaining lines, values ahead:

Wheal Area [mm^2 /10 μg] | Wheal [mm^2 /10] | Wheal (wheal response) (Table XIV and text, unit not given) | Compound
95.1 ± 5.0 |  |  | CC[C@H](NC(=O)[C@@H](CCCCNC(=O)c1ccccn1)NC(=O)[C@H](CCCCNC(=O)c1ccc(O)cc1)NC(=O)[C@H](CO)NC(=O)[C@@H](Cc1cccnc1)NC(=O)[C@@H](Cc1ccc(Cl)cc1)NC(=O)[C@@H](Cc1ccc2ccccc2c1)NC(C)=O)C(=O)N[C@@H](CCCCNC(C)C)C(=O)N1CCC[C@H]1C(=O)N[C@H](C)C(N)=O [compound 26381] (Ac-[d2Nal][dPhe(4-Cl)][d3Pal]SK(Benzoyl(4-OH))[dK](Picolinoyl)[Abu][Lys(iPr)]P[dA]-NH2)
103.9 ± 3.4 |  |  | CC(=O)N[C@H](Cc1ccc2ccccc2c1)C(=O)N[C@H](Cc1ccc(Cl)cc1)C(=O)N[C@H](Cc1cnccn1)C(=O)N[C@@H](CO)C(=O)N[C@@H](CCCCNC(=O)c1ccccn1)C(=O)N[C@H](CCCCNC(=O)c1ccccn1)C(=O)N[C@@H](CC(C)C)C(=O)N[C@@H](CCCNC(C)C)C(=O)N1CCC[C@H]1C(=O)N[C@H](C)C(N)=O [compound 26119] (Ac-[d2Nal][dPhe(4-Cl)][X10]SK(Picolinoyl)[dK](Picolinoyl)L[Orn(iPr)]P[dA]-NH2)
 | 196.9 |  | CC(=O)N[C@H](Cc1ccc2ccccc2c1)C(=O)N[C@H](Cc1ccc(Cl)cc1)C(=O)N[C@H](Cc1cccnc1)C(=O)N[C@@H](CO)C(=O)N[C@@H](CCCNC(=N)N)C(=O)N[C@H](CCCCNC(=O)c1cccnc1)C(=O)N[C@@H](CC(C)C)C(=O)N[C@@H](CCCCNC(C)C)C(=O)N1CCC[C@H]1C(=O)N[C@H](C)C(N)=O [compound 25335] (Ac-[d2Nal][dPhe(4-Cl)][d3Pal]SR[dK](Nicotinoyl)L[Lys(iPr)]P[dA]-NH2)
113.2 ± 5.4 |  | 113.2 ± 5.4 | CC[C@H](NC(=O)[C@@H](CCCCNC(=O)c1ccccn1)NC(=O)[C@H](CCCCNC(=O)c1ccccn1)NC(=O)[C@H](CO)NC(=O)[C@@H](Cc1cccnc1)NC(=O)[C@@H](Cc1ccc(Cl)cc1)NC(=O)[C@@H](Cc1ccc2ccccc2c1)NC(C)=O)C(=O)N[C@@H](CCCNC(=N)N)C(=O)N1CCC[C@H]1C(=O)N[C@H](C)C(N)=O [compound 26346] (Ac-[d2Nal][dPhe(4-Cl)][d3Pal]SK(Picolinoyl)[dK](Picolinoyl)[Abu]RP[dA]-NH2)
103.9 ± 3.7 |  |  | CC(=O)N[C@H](Cc1ccc2ccccc2c1)C(=O)N[C@H](Cc1ccc(Cl)cc1)C(=O)N[C@H](Cc1cccnc1)C(=O)N[C@@H](CO)C(=O)N[C@@H](CCCCNC(=O)c1ccccn1)C(=O)N[C@H](CCCCNC(=O)c1ccccn1)C(=O)N[C@@H](C)C(=O)N[C@@H](CCCCNC(C)C)C(=O)N1CCC[C@H]1C(=O)N[C@H](C)C(N)=O [compound 26099] (Ac-[d2Nal][dPhe(4-Cl)][d3Pal]SK(Picolinoyl)[dK](Picolinoyl)A[Lys(iPr)]P[dA]-NH2)
 | 123.0 |  | CC(=O)N[C@H](Cc1ccc2ccccc2c1)C(=O)N[C@H](Cc1ccc(Cl)cc1)C(=O)N[C@H](Cc1cccnc1)C(=O)N[C@@H](CO)C(=O)N[C@@H](CCCCNC(=O)c1ccccn1)C(=O)N[C@H](CCCCNC(=O)c1ccccn1)C(=O)N[C@@H](CC(C)C)C(=O)N[C@@H](CCCCNC(C)C)C(=O)N1CCC[C@H]1C(=O)N[C@H](C)C(N)=O [compound 25147] (Ac-[d2Nal][dPhe(4-Cl)][d3Pal]SK(Picolinoyl)[dK](Picolinoyl)L[Lys(iPr)]P[dA]-NH2)
89.5 ± 5.5 |  |  | CC[C@H](NC(=O)[C@@H](CCCCNC(=O)c1ccccn1)NC(=O)[C@H](CCCNC(N)=O)NC(=O)[C@H](CO)NC(=O)[C@@H](Cc1cccnc1)NC(=O)[C@@H](Cc1ccc(Cl)cc1)NC(=O)[C@@H](Cc1ccc2ccccc2c1)NC(C)=O)C(=O)N[C@@H](CCCCNC(C)C)C(=O)N1CCC[C@H]1C(=O)N[C@H](C)C(N)=O [compound 26382] (Ac-[d2Nal][dPhe(4-Cl)][d3Pal]S[Cit][dK](Picolinoyl)[Abu][Lys(iPr)]P[dA]-NH2)
